The results in this text go back to ChEMBL document CHEMBL1201862, “PubChem BioAssay data set” (2004).

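Tested at 5 concentrations; 48 h exposure; 96-well plates; endpoints linearly interpolated, else capped at highest concentration. GI50: concentration for 50% inhibition of growth.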 Activity calls are given as the source filed them. No stated cut-off is given here; in the data, active = GI50 up to about 1.1 µM and inactive = higher.

Test systems include M14; U-251; OVCAR-5; SK-OV-3; CAKI-1; NCI-H522; ACHN; 786-0; HCT-15; K562; MDA-N; SN12C; T47D; NCI-H23; LOX IMVI; CCRF-CEM; OVCAR-3; SR; NCI/ADR-RES.
Test in all cases: NCI-60 cell line screen, 48 h

With `CCN(CC)Cc1cc(Nc2c3ccccc3nc3c2[nH]c2ccccc23)cc(CN(CC)CC)c1O`, the GI50 is 0.303 µM (active) with M14; 0.513 µM (active) in the test on U-251; 2.01 µM (inactive) with OVCAR-5; 3.25 µM (inactive) with SK-OV-3; 1.77 µM (inactive) in the test on CAKI-1; 0.624 µM (active) in the test with NCI-H522. Also, the GI50 in the test with ACHN was 0.634 µM (active); with 786-0, 0.216 µM (active); with HCT-15 it was 0.684 µM; in the test on K562, 0.631 µM (active); in the test on MDA-N, 0.815 µM (active); with SN12C, 0.412 µM (active). For the same compound, the figures for the GI50 in the test on T47D and in the test with NCI-H23 were 2.67 µM (inactive) and 1.11 µM (active), respectively.
With `CCOc1ccccc1C=C1c2ccccc2C(=O)c2ccccc21`, the GI50 with M14 was 5.83 µM (inactive); in the test with LOX IMVI it was 8.69 µM (inactive); with U-251, 4.37 µM (inactive); with OVCAR-5 it was 12.8 µM (inactive); with SK-OV-3 it was 3.03 µM (inactive); in the test with CAKI-1, 2.11 µM (inactive). In addition, the GI50 is 2.36 µM (inactive) in the test with NCI-H522; 8.63 µM (inactive) in the test on ACHN; 3.38 µM (inactive) in the test on 786-0; 0.804 µM in the test on HCT-15; 3.32 µM (inactive) in the test on K562; 6.56 µM (inactive) with SN12C. The GI50 in the test with CCRF-CEM was 4.32 µM (inactive); in the test with OVCAR-3, 2.5 µM (inactive); in the test on NCI-H23, 4.06 µM (inactive).
Consider `NC(=O)CCC(NC(=O)c1cccc2c(=O)c3ccccc3[nH]c12)C(=O)O` (stereo unspecified), for which the GI50 in the test with M14, in the test on SR, in the test on LOX IMVI, in the test on U-251, in the test on OVCAR-5 and in the test on SK-OV-3 was > 100 µM (inactive) throughout. Moreover, the GI50 with NCI-H522 was > 100 µM (inactive); with ACHN it was > 100 µM (inactive); in the test on 786-0, > 100 µM (inactive); with HCT-15, greater than 100 µM; with NCI/ADR-RES, > 100 µM (inactive); with K562, > 100 µM (inactive). Besides, the GI50 in the test with MDA-N, with SN12C, in the test on OVCAR-3 and with NCI-H23 was > 100 µM (inactive) in each case.
Regarding `Cc1nn(C(=O)Cc2ccccc2)c2c1C(c1ccc(Cl)cc1)SC(=N)N2` (stereo unspecified), the GI50 in the test on M14, in the test on SR, in the test with LOX IMVI, with SK-OV-3, with CAKI-1 and with NCI-H522 was > 100 µM (inactive) in each case. Further, the GI50 was > 100 µM (inactive) with ACHN; > 100 µM (inactive) in the test on 786-0; greater than 100 µM with HCT-15; > 100 µM (inactive) with K562; > 100 µM (inactive) in the test on SN12C; > 100 µM (inactive) with CCRF-CEM. Further, the GI50 in the test on T47D and in the test on NCI-H23 was > 100 µM (inactive) each time.
As to `CCCOc1ccc2sc(NC(=O)c3cc([N+](=O)[O-])cc([N+](=O)[O-])c3)nc2c1`, the GI50 was 50.4 µM (inactive) in the test on M14; 20.8 µM (inactive) in the test with LOX IMVI; 32.4 µM (inactive) with U-251; > 100 µM (inactive) in the test on OVCAR-5; 36.5 µM (inactive) in the test with SK-OV-3; 28.6 µM (inactive) in the test with CAKI-1. The GI50 with ACHN was 48.4 µM (inactive); with 786-0, 52.2 µM (inactive); in the test with HCT-15 it was 53.7 µM; in the test on NCI/ADR-RES, 22.6 µM (inactive); with K562, 65.5 µM (inactive); in the test on SN12C, 42.1 µM (inactive). Further, the GI50 with CCRF-CEM is 30.3 µM (inactive); in the test with OVCAR-3 it was 26.3 µM (inactive); in the test on T47D it was 53.2 µM (inactive); in the test with NCI-H23, 23 µM (inactive).
In the case of `O=C(Cl)c1cc([N+](=O)[O-])cc([N+](=O)[O-])c1`, the GI50 in the test with M14, in the test with SR, in the test with LOX IMVI, in the test with U-251, in the test with OVCAR-5 and in the test on SK-OV-3 was > 100 µM (inactive) throughout. Further, the GI50 in the test with CAKI-1 is > 100 µM (inactive); in the test on NCI-H522 it was > 100 µM (inactive); with ACHN, > 100 µM (inactive); in the test on 786-0, > 100 µM (inactive); in the test on HCT-15 it was greater than 100 µM; in the test on K562, > 100 µM (inactive). Moreover, the GI50 with CCRF-CEM and with NCI-H23 was > 100 µM (inactive) in each case.
Turning to `Cc1nc2ccc(F)cc2c2c1CCN2c1ccc(Cl)cc1`, the GI50 is 8.85 µM (inactive) in the test on M14; 12.5 µM (inactive) with LOX IMVI; 9.1 µM (inactive) in the test with U-251; 33.9 µM (inactive) in the test on OVCAR-5; 29 µM (inactive) in the test on SK-OV-3; 13.9 µM (inactive) in the test on CAKI-1. Moreover, the GI50 was 6.78 µM (inactive) in the test with NCI-H522; 13.7 µM (inactive) in the test with ACHN; 7.66 µM (inactive) in the test with 786-0; 13.1 µM in the test on HCT-15; 4.88 µM (inactive) with NCI/ADR-RES; 2.26 µM (inactive) in the test on K562. Besides, the GI50 in the test on MDA-N is 4.25 µM (inactive); in the test with SN12C, 11.8 µM (inactive); in the test with CCRF-CEM it was 5.82 µM (inactive); in the test on OVCAR-3, 7.96 µM (inactive); in the test on NCI-H23 it was 5.15 µM (inactive).
As for `COc1ccc(-c2cc(-c3ccco3)c(C#N)c(=S)n2C2OC(CO)C(O)C(O)C2O)cc1` (stereo unspecified), the GI50 with M14 is 52 µM (inactive); in the test on LOX IMVI, 50.4 µM (inactive); with U-251, 82.8 µM (inactive); in the test with OVCAR-5, > 100 µM (inactive); in the test on SK-OV-3, 1.57 µM (inactive); in the test with CAKI-1, > 100 µM (inactive). In addition, the GI50 in the test on NCI-H522 is > 100 µM (inactive); in the test on ACHN, > 100 µM (inactive); in the test with 786-0 it was > 100 µM (inactive); in the test with HCT-15 it was greater than 100 µM; in the test with NCI/ADR-RES, > 100 µM (inactive); with K562, > 100 µM (inactive). In addition, the GI50 was > 100 µM (inactive) in the test on MDA-N; > 100 µM (inactive) in the test on SN12C; > 100 µM (inactive) with CCRF-CEM; 49.7 µM (inactive) in the test with OVCAR-3; > 100 µM (inactive) with NCI-H23.
`COc1ccc(N2C(=O)C3c4[nH]c5ccc(Br)cc5c4C4CCC(C(C)(C)C)CC4C3C2=O)cc1` (stereo unspecified): the GI50 in the test on M14 was 94.2 µM (inactive); with SR, > 100 µM (inactive); with LOX IMVI, > 100 µM (inactive); with U-251 it was > 100 µM (inactive); in the test with OVCAR-5, > 100 µM (inactive); in the test on SK-OV-3, > 100 µM (inactive). For the same compound, the GI50 in the test on CAKI-1 is > 100 µM (inactive); with NCI-H522, > 100 µM (inactive); in the test with ACHN, > 100 µM (inactive); in the test on 786-0, > 100 µM (inactive); in the test on HCT-15, greater than 100 µM; in the test with NCI/ADR-RES it was > 100 µM (inactive). Besides, the GI50 in the test with K562, in the test on MDA-N, in the test with SN12C, in the test with CCRF-CEM, in the test with OVCAR-3 and in the test on NCI-H23 was > 100 µM (inactive) throughout.
As for `C=C1C(=O)OC2CC(C)C(C(CC(C)=O)OC(C)=O)=CCC12` (stereo unspecified), the GI50 is 11 µM (inactive) in the test with M14; 2.88 µM (inactive) in the test with SR; 6.78 µM (inactive) with LOX IMVI; 15.8 µM (inactive) with U-251; 17.6 µM (inactive) in the test with OVCAR-5; 37.9 µM (inactive) in the test on SK-OV-3. Moreover, the GI50 in the test with CAKI-1 is 3.16 µM (inactive); in the test on NCI-H522 it was 1.73 µM (inactive); with ACHN, 9.27 µM (inactive); with 786-0, 2.74 µM (inactive); with HCT-15 it was 2.75 µM; in the test with NCI/ADR-RES, 13.8 µM (inactive). The GI50 in the test with K562 is 3.24 µM (inactive); with SN12C, 4.27 µM (inactive); with CCRF-CEM, 2.61 µM (inactive); in the test with OVCAR-3, 7.06 µM (inactive); in the test with T47D, 20.4 µM (inactive); in the test on NCI-H23 it was 17.2 µM (inactive).
On to `C[C@H]1C(=O)O[C@@H]1[C@H]1COC(C)(C)O1`, for which the GI50 in the test with M14, with SR, with U-251, in the test on OVCAR-5, in the test on SK-OV-3 and with CAKI-1 was > 100 µM (inactive) in each case. The GI50 in the test with ACHN was > 100 µM (inactive); in the test with HCT-15, greater than 100 µM; in the test with NCI/ADR-RES, > 100 µM (inactive); in the test with MDA-N it was > 100 µM (inactive); with SN12C, > 100 µM (inactive); in the test on CCRF-CEM, 32.5 µM (inactive). Moreover, the GI50 with OVCAR-3 and in the test on NCI-H23 was > 100 µM (inactive) in each case.
For the compound `O=C(CNc1ccccc1C(=O)O)Nn1cnc2ccc(S(=O)(=O)Nc3ccccc3C(=O)O)cc2c1=O`, the GI50 in the test with M14, in the test with SR, with LOX IMVI, in the test with U-251, with OVCAR-5 and with SK-OV-3 was > 100 µM (inactive) in each case. Further, the GI50 in the test on CAKI-1 was > 100 µM (inactive); in the test on NCI-H522, > 100 µM (inactive); with ACHN, > 100 µM (inactive); with 786-0, > 100 µM (inactive); with HCT-15, greater than 100 µM; in the test with NCI/ADR-RES, > 100 µM (inactive). The GI50 with K562, in the test with MDA-N, in the test on SN12C, with CCRF-CEM, in the test on OVCAR-3 and with NCI-H23 was > 100 µM (inactive) each time.
